# Results from patent US5707963A, “Methods of using growth inhibitory peptides” (Health Research, Incorporated, priority 1996, dated 1998).
# Several values for one entry are separate records, joined by “and”; a condition that tells them apart may be missing. Identical values can stand only once. Like-named read-outs stand apart in the source and are kept apart here.
# Tests used:
# [1] = tested on: diethylstilbestrol (DES)-stimulated growth of mouse uterus; assay: In vivo wet weight bioassay, inhibition of DES-stimulated growth of uteri; settings: for Percent Growth Inhibition: immature mouse uterus
# Protocol: An in vivo wet weight bioassay measuring inhibition of diethylstilbestrol (DES)-stimulated growth was also performed. The procedure of Mizejewski et al. (see previous citations) was used for the wet weight assay. The applicability of the wet weight bioassay for measuring DES-stimulated growth of uteri is disclosed by Korach, K. S. et al., "Estrogenic activity in vivo and in vitro of some diethylstilbestrol metabolites and analogs", Proc Natl Acad Sci USA 75:468-471 (1978).
# (§1) Briefly, the synthesized powdered peptide was reconstituted in saline (1 mg/ml) to form a stock solution of the GIP. The stock solution was appropriately diluted to provide dosages of 10 ng to 100 μg/mouse. 0.1 ml of the appropriately diluted GIP was injected intraperitoneally into 15-18 day old Nya:NYLAR female mice. Control mice were injected with saline. 1 hour after this first injection, a DES challenge of 0.5 micrograms of DES in 0.1 ml saline was given to determine the change in uterine responsiveness to DES resulting from exposure to the first injection. 23 hours after the second injection, uteri were dissected, trimmed free of connective tissue and immediately weighed. The uterine wet weights were normalized to mouse body weight (mg uterine weight/g of body weight) to compensate for differences in body weight among litters of the same age. Percent inhibition of DES-stimulated uterine growth was calculated as described by Mizejewski et al. (1983).
# [2] = tested on: mouse mammary tumor 6WI-1; type: in vivo
# Protocol: A second assay was also used to assess the percent of inhibition for the various fragments. […] The procedure of Parsons et al. was used in this assay (see Parsons et al., Cancer investigation 4(2):109-126 (1986)). The mouse mammary tumor 6WI-1 normally kills animals within 12-15 days. In this assay, the tumor cells were injected into the body cavity of live mice. […] The inhibition of tumor growth is indicated by percentage. […] Unless otherwise indicated, the dose of peptide or peptide fragment was injected into the body cavity of the mice on day 1 and every day for 15 days. Percent inhibition was measured on day 15.
# [3] = tested on: hydrocortisone (HC)-stimulated growth of mouse spleen; assay: In vivo wet weight bioassay, inhibition of HC-stimulated growth of the spleen; settings: for Percent Growth Inhibition: immature mouse spleen
# Protocol: An in vivo wet weight bioassay measuring inhibition of hydrocortisone (HC)-stimulated growth of the spleen was also performed. The procedure of Mizejewski et al. (see previous citations) was used for the wet weight assay. The applicability of the wet weight bioassay for measuring HC-stimulated growth of the spleen is disclosed by el-Fouhil, A. F. and Turkall, R. M., "Effect of alternate-day hydrocortisone therapy on the immunologically immature rat. I: Effect on blood cell count, immunoglobulin concentrations, and body and organ weights", Toxicologic Pathology 21(4):377-382 (1993).
# as §1, with “of 500” for “of 10”, “saline. […]” for “saline. 1 hour after this first injection, a DES challenge of 0.5 micrograms of DES in 0.1 ml saline was given to determine the change in uterine responsiveness to DES resulting from exposure to the first injection.”, “injection, spleens” for “injection, uteri”, “The spleenic” for “The uterine”, “(mg spleenic” for “(mg uterine”, “of HC-stimulated spleenic” for “of DES-stimulated uterine”
substance,measurement,setting,value
Leu Ser Glu Asp Lys Leu Leu Ala Cys Gly Glu Gly Ala Ala Asp Ile ile Ile Gly His Leu Cys Ile Arg His Glu Met Thr Pro Val Ash Pro Gly Val (LSEDKLLACGEGAADIIIGHLCIRHEMTPVNPGV) [GIP],inhibition of DES-induced growth (range over Table 3),[1]; 10ng to 100 μg/mouse,14-27%
same,Percent Growth Inhibition,[1]; 10 ng per mouse,27%
same,Percent Growth Inhibition,[1]; 100 ng per mouse,25%
same,Percent Growth Inhibition,"[1]; 800 ng per mouse i.p., DES 0.5 micrograms",18%
same,Percent Growth Inhibition,[1]; 1 μg per mouse,22%
same,Percent Growth Inhibition,[1]; 10 μg per mouse,20%
same,Percent Growth Inhibition,[1]; 100 μg per mouse,14%
same,most effective dose,"[1]; immature uterus, produced 27% growth inhibition",10 ng/mouse
same,Percent Growth Inhibition,"[2]; adult mouse, 100 μg per mouse daily for 15 days, 0.3-1.0×10^6 tumor cells per mouse, day 15",97%
same,Percent Growth Inhibition,"[2]; adult mouse, 100 μg per mouse daily for 15 days, 1.1-4.0×10^6 tumor cells per mouse, day 15",79%
same,Percent Growth Inhibition,"[2]; adult mouse, 1.1-4.0 × 10^6 tumor cells mixed with 100 μg of the peptide, injected only on day 1",85%
same,Percent Growth Inhibition,"[2]; immature mouse, 1000 μg per mouse daily for 15 days, 0.3-1.0×10^6 tumor cells per mouse, day 15",57%
same,Percent Growth Inhibition,"[2]; immature mouse, 1000 μg per mouse daily for 15 days, 1.1-4.0×10^6 tumor cells per mouse, day 15",49%
same,inhibition of HC-induced growth (range over Table 4),[3]; 500 ng to 100 μg/mouse,24-100%
same,Percent Growth Inhibition,[3]; 1.0 μg per mouse,100%
same,Percent Growth Inhibition,[3]; 10.0 μg per mouse,76%
same,Percent Growth Inhibition,"[3]; 100 μg per mouse, 1.0 μg of HC instead of 0.5 μg",24% and 34%
same,Percent Growth Inhibition,"[3]; 100 μg per mouse, HC 0.5 micrograms",67%
same,most effective dose,"[3]; immature spleen, produced 100% growth inhibition",1.0 μg/mouse
